The source of these data is ChEMBL document CHEMBL1201862, “PubChem BioAssay data set” (2004).

What all share (assay type): functional
The target in assay [1] is T1, Sentrin-specific protease 7 (Homo sapiens, UniProt Q9BQF6).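 Note: Luminescence-based dose-response confirmation of ultra-high-throughput screening hits, measuring inhibition of SENP7.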
T1 sequence (Q9BQF6 whole entry): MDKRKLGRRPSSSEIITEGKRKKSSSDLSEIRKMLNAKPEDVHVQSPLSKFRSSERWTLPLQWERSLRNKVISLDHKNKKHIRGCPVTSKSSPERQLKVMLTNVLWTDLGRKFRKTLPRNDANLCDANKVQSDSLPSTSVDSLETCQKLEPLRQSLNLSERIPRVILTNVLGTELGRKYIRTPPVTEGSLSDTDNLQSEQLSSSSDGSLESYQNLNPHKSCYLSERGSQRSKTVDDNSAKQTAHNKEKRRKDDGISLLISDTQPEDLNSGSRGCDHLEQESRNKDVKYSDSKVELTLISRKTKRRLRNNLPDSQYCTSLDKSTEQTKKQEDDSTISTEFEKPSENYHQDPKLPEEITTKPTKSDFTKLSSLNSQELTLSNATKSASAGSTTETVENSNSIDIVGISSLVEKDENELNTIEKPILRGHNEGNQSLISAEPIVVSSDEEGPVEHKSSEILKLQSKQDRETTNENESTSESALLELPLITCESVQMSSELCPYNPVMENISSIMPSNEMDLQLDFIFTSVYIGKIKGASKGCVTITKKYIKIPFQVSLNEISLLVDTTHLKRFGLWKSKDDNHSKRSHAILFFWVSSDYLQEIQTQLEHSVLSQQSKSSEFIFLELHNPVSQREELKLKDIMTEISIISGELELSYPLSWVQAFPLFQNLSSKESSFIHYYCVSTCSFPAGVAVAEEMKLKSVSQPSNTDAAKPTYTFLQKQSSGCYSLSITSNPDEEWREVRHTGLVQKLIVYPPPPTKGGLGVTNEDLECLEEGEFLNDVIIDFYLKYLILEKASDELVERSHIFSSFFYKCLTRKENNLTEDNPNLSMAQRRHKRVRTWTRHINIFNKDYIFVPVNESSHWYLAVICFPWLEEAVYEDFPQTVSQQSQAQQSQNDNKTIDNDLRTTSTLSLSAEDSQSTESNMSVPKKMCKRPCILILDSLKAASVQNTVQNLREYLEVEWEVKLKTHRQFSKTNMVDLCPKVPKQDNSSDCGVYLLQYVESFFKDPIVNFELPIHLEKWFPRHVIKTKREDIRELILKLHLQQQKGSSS

Assay [2] has as its target T2, Sentrin-specific protease 8 (Homo sapiens, UniProt Q96LD8).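 Note: luminescence read-out of SENP8 inhibition, dose-response confirmation following an ultra-high-throughput screen.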
T2 sequence (Q96LD8 whole entry): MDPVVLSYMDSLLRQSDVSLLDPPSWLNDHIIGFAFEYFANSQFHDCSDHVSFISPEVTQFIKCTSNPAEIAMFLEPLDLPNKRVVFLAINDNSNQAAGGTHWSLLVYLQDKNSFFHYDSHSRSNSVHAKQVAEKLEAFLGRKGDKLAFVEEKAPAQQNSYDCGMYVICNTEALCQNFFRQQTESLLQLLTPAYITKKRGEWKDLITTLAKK

The target in assay [3] is T3, Caspase-3 (Homo sapiens, UniProt P42574).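 Note: Dose-response selectivity test against caspase-3 for candidate inhibitors of sentrin-specific proteases (SENPs).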
T3 sequence (P42574 whole entry): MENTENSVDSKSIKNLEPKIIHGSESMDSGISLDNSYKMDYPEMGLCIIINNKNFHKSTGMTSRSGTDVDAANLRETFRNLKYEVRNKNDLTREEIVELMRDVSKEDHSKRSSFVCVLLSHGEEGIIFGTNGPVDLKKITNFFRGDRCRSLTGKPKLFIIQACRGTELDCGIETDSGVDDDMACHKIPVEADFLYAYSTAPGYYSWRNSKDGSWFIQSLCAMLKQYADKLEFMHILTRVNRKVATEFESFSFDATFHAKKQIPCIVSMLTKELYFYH

In assay [4] the target is T4, Sentrin-specific protease 6 (Homo sapiens, UniProt Q9GZR1).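 Note: Luminescence-based dose-response confirmatory assay of SENP6 inhibition, following up an ultra-high-throughput screen.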
T4 sequence (Q9GZR1 whole entry): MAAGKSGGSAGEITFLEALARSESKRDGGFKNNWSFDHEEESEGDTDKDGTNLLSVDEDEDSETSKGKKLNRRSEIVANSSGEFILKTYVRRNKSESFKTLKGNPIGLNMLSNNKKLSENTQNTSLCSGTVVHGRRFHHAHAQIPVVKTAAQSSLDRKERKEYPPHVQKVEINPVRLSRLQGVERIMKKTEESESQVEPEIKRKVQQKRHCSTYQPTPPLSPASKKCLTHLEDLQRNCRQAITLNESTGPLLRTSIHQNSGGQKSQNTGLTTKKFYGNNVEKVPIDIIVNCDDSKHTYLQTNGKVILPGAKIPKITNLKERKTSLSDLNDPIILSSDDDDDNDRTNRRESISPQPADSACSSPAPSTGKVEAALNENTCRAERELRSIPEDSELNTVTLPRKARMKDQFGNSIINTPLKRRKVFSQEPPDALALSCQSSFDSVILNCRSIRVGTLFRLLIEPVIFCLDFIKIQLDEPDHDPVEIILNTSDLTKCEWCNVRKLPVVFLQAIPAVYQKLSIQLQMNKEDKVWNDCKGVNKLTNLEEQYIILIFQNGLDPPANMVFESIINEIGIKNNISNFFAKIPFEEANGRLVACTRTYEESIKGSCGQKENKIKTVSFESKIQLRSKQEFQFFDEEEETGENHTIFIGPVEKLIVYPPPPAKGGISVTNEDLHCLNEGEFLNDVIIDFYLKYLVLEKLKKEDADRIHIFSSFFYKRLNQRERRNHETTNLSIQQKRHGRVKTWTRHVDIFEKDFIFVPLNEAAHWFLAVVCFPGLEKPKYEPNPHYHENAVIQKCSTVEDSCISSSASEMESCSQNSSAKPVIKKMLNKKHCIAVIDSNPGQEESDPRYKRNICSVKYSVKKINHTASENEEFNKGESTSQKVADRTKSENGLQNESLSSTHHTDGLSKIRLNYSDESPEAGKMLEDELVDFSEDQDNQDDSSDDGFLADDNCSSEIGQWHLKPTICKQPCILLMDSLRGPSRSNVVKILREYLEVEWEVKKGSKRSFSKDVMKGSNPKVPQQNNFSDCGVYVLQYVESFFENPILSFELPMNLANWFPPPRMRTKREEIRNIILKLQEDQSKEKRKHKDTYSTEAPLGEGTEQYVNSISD

Assay [5] concerns the target Mitogen-activated protein kinase 8 (Homo sapiens, UniProt P45983).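 Note: value comes from one member of a kinome-wide kinase profiling panel.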

Activity calls are given as the source filed them. Cut-off read from the data, not from the text of the source, for most assays here: actives have a measured IC50 and inactives only a lower limit.

Chain of Mitogen-activated protein kinase 8 (P45983 whole entry): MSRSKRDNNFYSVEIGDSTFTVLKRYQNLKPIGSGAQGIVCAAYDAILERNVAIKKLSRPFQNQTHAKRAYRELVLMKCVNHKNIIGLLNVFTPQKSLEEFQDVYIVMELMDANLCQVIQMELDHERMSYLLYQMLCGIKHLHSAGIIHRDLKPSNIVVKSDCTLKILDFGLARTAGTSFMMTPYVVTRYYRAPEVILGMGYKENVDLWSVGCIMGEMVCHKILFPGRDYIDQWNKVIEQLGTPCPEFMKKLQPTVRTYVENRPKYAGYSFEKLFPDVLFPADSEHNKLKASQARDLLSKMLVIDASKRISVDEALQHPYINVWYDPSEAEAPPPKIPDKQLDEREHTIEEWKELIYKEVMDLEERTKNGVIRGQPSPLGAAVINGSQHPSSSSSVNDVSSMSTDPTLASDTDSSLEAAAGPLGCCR

Consider `Cc1ccc(NC(=O)COc2cccc(/C=C3\SC(=S)N(CCC(=O)O)C3=O)c2)cc1Cl`, for which the half-maximal inhibitory concentration (IC50) in assay [1] is 18.3 µM (active); in assay [2], 3.14 µM (active); in assay [3] it was 70 µM (active); in assay [4], > 100 µM (inactive).

Consider `COc1cccc(C(C)NC(=O)c2ccc(-c3ccncc3)s2)c1` (centres undefined), for which, in assay [5], the Ki was > 5.01 µM (inactive).

On to `O=Nc1c(-c2c(O)[nH]c3cc(Br)ccc23)[nH]c2ccccc12`, for which the IC50 in assay [1] is 5.6 µM (active); in assay [2], > 100 µM (inactive); in assay [3] it was 64.3 µM (active); in assay [4], > 100 µM (inactive).
